Experimental data: patent publication US20240065982A1 (priority 2020, published 2024)

Test: Clearance of ionizable lipid from the mouse lung following chamber nebulization of mRNA LNP (LC-MS)
Assay type: in vivo
Experimental: On the day of dosing the LNP formulations were diluted to 1.2 mg/mL with PBS and 1.25 mL (1.5 mg dose) of these solutions are placed in Aerogen Solo nebulizer units which sit in a housing attached to a mouse chamber of dimensions 9″×4″×5″ (1×w×h) with a carbon filter attached. Six (6) Balb/C mice are dosed in the chamber at a time. An airflow of 1.5 L/min was forced through the nebulizer housing unit and the nebulizer turned on. During nebulization, some of the LNP condensed from the nebulizer and was collected and passed back through the nebulizer. This continued until no condensate was collected. Upon nebulization to dryness, the mice remained in the chamber for an extra 1-2 min until the LNP vapor dissipated. Complete nebulization of the LNP typically took ˜15 min. At each time points of 0.25 h (immediately after nebulization), 1 h, 6 h and 24 h, three (3) animals per formulation were euthanized with a lethal dosage of ketamine/xylazine and the lungs were excised and cut into ˜100 mg sections. These were placed in FastPrep tubes, fast frozen in liquid N2, and stored at […] until LC-MS analysis.
To the lung sections were added 5 volumes of PBS (e.g. to 50 mg of lung added 250 μL of PBS). These were then homogenized in a FastPrep instrument using 3 cycles of 15 sec each, with a speed of 5.0 m/s and were centrifuged at low speed. Spiked lung homogenate standards were prepared for each cationic lipid (103, 101 and 102) using the lung homogenates of mice dosed with PBS. For each cationic lipid, 10 standards were prepared: the highest standard at a concentration of 12,500 ng/mL with serial dilution by ½ down to 24.4 ng/mL. 20 μL of the homogenates (samples and standards) was added to 225 μL of ISS (IPA containing 100 ng/mL 1-B11 internal standard) in 96-well plates. The plates were mixed by pipetting up and down and were centrifuged at 2500 rpm for 15 min. The supernatant from these extractions were analyzed by LC-MS. By comparing the signal obtained for each sample to the appropriate standard curves for each cationic lipid (103, 101 and 102), the ng/mL of cationic lipid in each homogenate was determined. These values were then normalized to the exact mass of lung tissue that was analyzed. For the Non-biodegradable cationic lipid, the resulting average (n=3) ng 103/g of lung values were plotted without any further manipulation. For the Hydrolyzable cationic lipid, the ng/g of lung values at each time point for both 101 and 102 were combined to give the average (n=3) ng cationic lipid/g of lung values.

[1] = 24 h post administration, nebulized mRNA LNP, mice

| SMILES | fate of the lipid in the lungs by 24 h, in words [1] | % Cationic Lipid Remaining (Balb/C, mouse, in vivo) [%] | % Cationic Lipid Remaining (Balb/C, mouse, in vivo, 1 h) [%] | % Cationic Lipid Remaining (Balb/C, mouse, in vivo, 6 h) [%] | % Cationic Lipid Remaining (Balb/C, mouse, in vivo, 24 h) [%] | fate of the lipid in the lungs by 24 h, in words (Balb/C, mouse, in vivo, 24 h) |
| --- | --- | --- | --- | --- | --- | --- |
| CCCCC/C=C\CCCO[Si](CCCCN(C)CCO)(OCCC/C=C\CCCCC)OCCC/C=C\CCCCC [Example 102] | close to complete lipid hydrolysis | – | – | – | – | – |
| CCCCC/C=C\CCCO[Si](CCCCN(C)C)(OCCC/C=C\CCCCC)OCCC/C=C\CCCCC [Example 101] | close to complete lipid hydrolysis | – | – | – | – | – |
| CCCCC/C=C\CCCC(CCC/C=C\CCCCC)C(CCC/C=C\CCCCC)OC(=O)CCCCN(C)C (stereo not shown) [Example 103] | – | 100 | 120 | 90 | 94 | remained in the lungs for the complete 24 h |
